Results: ChEMBL document CHEMBL3885861, “Open TG-GATES”

Species on record: Rattus norvegicus
Assay: Open TG-GATES - Regimen: Daily Repeat
Format: toxicity, organism-based, Sprague-Dawley
Design: regimen Daily Repeat, gender Male, age 6 weeks
Details: in vivo, po, route gavage; for APTT / Bas / Eos / Fbg / Hb / Ht / Lym / MCH / MCV / Mono / Neu / PT / Plat / RBC / Ret / WBC: tissue Blood; for KIDNEY_L / KIDNEY_R / KIDNEY_TOTAL: tissue Kidney; for LIVER: tissue Liver; for ALP / ALT / AST / BUN / CRE / Ca / Cl / DBIL / GLC / IP / K / LDH / Na / PL / RALB / TBIL / TP / gamma-GTP: tissue Plasma
[1] = 30 mg/kg, 72 h, dose level Low, time 3 day
[2] = 30 mg/kg, […], dose level Low, time 7 day
[3] = 30 mg/kg, […], dose level Low, time 14 day
[4] = 30 mg/kg, […], dose level Low, time 28 day
[5] = 100 mg/kg, 72 h, dose level Middle, time 3 day

SMILES: NC(=O)N1c2ccccc2C=Cc2ccccc21 [CARBAMAZEPINE]
- APTT [1]: 19.7 s
- Bas [1]: 0%
- Eos [1]: 1%
- Fbg [1]: 213 mg/dL
- Hb [1]: 13.4 g/dL
- Ht [1]: 39.4%
- Lym [1]: 80.4%
- MCH [1]: 21 pg
- MCV [1]: 62 fL
- Mono [1]: 3.4%
- Neu [1]: 14%
- PT [1]: 12.2 s
- Plat [1]: 120.4 x10_4/uL
- RBC [1]: 636 x10_4/ul
- Ret [1]: 5.2%
- WBC [1]: 98.2 x10_2/uL
- KIDNEY_L [1]: 1 g
- KIDNEY_R [1]: 1 g
- KIDNEY_TOTAL [1]: 2 g
- LIVER [1]: 11.7 g
- ALP [1]: 1007.4 IU/L
- ALT [1]: 35.6 IU/L
- AST [1]: 66.6 IU/L
- BUN [1]: 14.8 mg/dL
- CRE [1]: 0.4 mg/dL
- Ca [1]: 10.8 mg/dL
- Cl [1]: 103.2 meq/L
- DBIL [1]: 0.094 mg/dL
- GLC [1]: 209.6 mg/dL
- IP [1]: 7.6 mg/dL
- K [1]: 3.5 meq/L
- LDH [1]: 197.2 IU/L
- Na [1]: 140 meq/L
- PL [1]: 148.8 mg/dL
- RALB [1]: 3.3 g/dL
- TBIL [1]: 0.1 mg/dL
- TP [1]: 5.6 g/dL
- gamma-GTP [1]: 1.2 IU/L
- TERMINAL_BW [2]: 270.1 g
- TERMINAL_BW [3]: 327.6 g
- TERMINAL_BW [4]: 366.9 g
- APTT [2]: 21.4 s
- Bas [2]: 0%
- Eos [2]: 0.8%
- Fbg [2]: 214.2 mg/dL
- Hb [2]: 13.7 g/dL
- Ht [2]: 40.2%
- Lym [2]: 83.2%
- MCH [2]: 20.8 pg
- MCV [2]: 61.1 fL
- Mono [2]: 2.4%
- Neu [2]: 12.6%
- PT [2]: 12 s
- Plat [2]: 127.1 x10_4/uL
- RBC [2]: 658.2 x10_4/ul
- Ret [2]: 4.4%
- WBC [2]: 103.7 x10_2/uL
- APTT [3]: 20.7 s
- Bas [3]: 0%
- Eos [3]: 1%
- Fbg [3]: 206.2 mg/dL
- Hb [3]: 14.3 g/dL
- Ht [3]: 41.1%
- Lym [3]: 83%
- MCH [3]: 20.4 pg
- MCV [3]: 58.8 fL
- Mono [3]: 2.4%
- Neu [3]: 12.6%
- PT [3]: 12.2 s
- Plat [3]: 119.9 x10_4/uL
- RBC [3]: 700.8 x10_4/ul
- Ret [3]: 4%
- WBC [3]: 100 x10_2/uL
- APTT [4]: 21 s
- Bas [4]: 0%
- Eos [4]: 0.8%
- Fbg [4]: 197.8 mg/dL
- Hb [4]: 15.9 g/dL
- Ht [4]: 45.7%
- Lym [4]: 83%
- MCH [4]: 19.5 pg
- MCV [4]: 55.9 fL
- Mono [4]: 2.2%
- Neu [4]: 12.6%
- PT [4]: 12.3 s
- Plat [4]: 108.1 x10_4/uL
- RBC [4]: 820.4 x10_4/ul
- Ret [4]: 2.2%
- WBC [4]: 127.9 x10_2/uL
- KIDNEY_L [2]: 1.1 g
- KIDNEY_R [2]: 1.1 g
- KIDNEY_TOTAL [2]: 2.2 g
- KIDNEY_L [3]: 1.3 g
- KIDNEY_R [3]: 1.3 g
- KIDNEY_TOTAL [3]: 2.6 g
- KIDNEY_L [4]: 1.3 g
- KIDNEY_R [4]: 1.3 g
- KIDNEY_TOTAL [4]: 2.6 g
- LIVER [2]: 12.5 g
- LIVER [3]: 15.3 g
- LIVER [4]: 14.4 g
- ALP [2]: 876.6 IU/L
- ALT [2]: 37 IU/L
- AST [2]: 70.6 IU/L
- BUN [2]: 16.2 mg/dL
- CRE [2]: 0.4 mg/dL
- Ca [2]: 10.4 mg/dL
- Cl [2]: 100.8 meq/L
- DBIL [2]: 0.088 mg/dL
- GLC [2]: 233.6 mg/dL
- IP [2]: 8.2 mg/dL
- K [2]: 3.7 meq/L
- LDH [2]: 187.4 IU/L
- Na [2]: 139.4 meq/L
- PL [2]: 150.8 mg/dL
- RALB [2]: 3.4 g/dL
- TBIL [2]: 0.1 mg/dL
- TP [2]: 5.7 g/dL
- gamma-GTP [2]: 1 IU/L
- ALP [3]: 890.2 IU/L
- ALT [3]: 30.8 IU/L
- AST [3]: 60.8 IU/L
- BUN [3]: 16.9 mg/dL
- CRE [3]: 0.5 mg/dL
- Ca [3]: 10.7 mg/dL
- Cl [3]: 101.2 meq/L
- DBIL [3]: 0.1 mg/dL
- GLC [3]: 219.8 mg/dL
- IP [3]: 7.1 mg/dL
- K [3]: 3.8 meq/L
- LDH [3]: 208.4 IU/L
- Na [3]: 140.6 meq/L
- PL [3]: 160.2 mg/dL
- RALB [3]: 3.4 g/dL
- TBIL [3]: 0.2 mg/dL
- TP [3]: 5.9 g/dL
- gamma-GTP [3]: 0.8 IU/L
- ALP [4]: 673 IU/L
- ALT [4]: 36.6 IU/L
- AST [4]: 68.4 IU/L
- BUN [4]: 17.8 mg/dL
- CRE [4]: 0.5 mg/dL
- Ca [4]: 10.3 mg/dL
- Cl [4]: 101.8 meq/L
- DBIL [4]: 0.098 mg/dL
- GLC [4]: 224.4 mg/dL
- IP [4]: 6.7 mg/dL
- K [4]: 3.4 meq/L
- LDH [4]: 150.8 IU/L
- Na [4]: 141.4 meq/L
- PL [4]: 148 mg/dL
- RALB [4]: 3.5 g/dL
- TBIL [4]: 0.1 mg/dL
- TP [4]: 6.2 g/dL
- gamma-GTP [4]: 1 IU/L
- TERMINAL_BW [5]: 234.6 g
- APTT [5]: 20.1 s
- Bas [5]: 0%
